Legend:
butyrylcholinesterase [1] = target: T1, butyrylcholinesterase (Equus caballus, UniProt P81908); test: biochemical; format: biochemical, horse; conditions: for Change in Absorbance at 412 nm/Minute (Normalized): 10^−7M, normalized to 2-chlorophenyl-di-n-butyl phosphate set as 1.0; for Change in Absorbance at 412 nm/Minute (Not Normalized): compound final concentration 10^−7M; for inhibition at 100 µM: read-out: % inhibition of BuChase
T1 construct: butyrylcholinesterase (from horse serum); purchased Sigma; host or cells: horse serum (natural source)
Experimental: (§1) Cholinesterase activity measurements were performed essentially according to the method of Ellman (Biochemical Pharmacology 7:88-90, 1961). The composition of the assay mixture was 0.1 M sodium phosphate, pH 7.5, 0.033 M DTNB, 0.001 M MgCl2, and 100 μg/mL of BSA containing appropriate amounts of substrate and inhibitor. Each assay was initiated by the addition of substrate and the activity quantified by measuring the formation of the thionitrobenzoate anion at 412 nm at 37° C. Methanol used to solubilize the dialkyl phenyl phosphates [1% (v/v) final concentration] had no inhibitory effect on either enzyme.
. The results were obtained by pre-incubating the enzyme with the compound (final concentration 10^−7M) for various periods of time and measuring the remaining enzyme activity. The results are shown as the change in absorbance at 412 nm/minute. In order to simplify the results from all the compounds, the enzyme activities were normalized to 2-chlorophenyl-di-n-butyl phosphate which was set as 1.0. Since two different preparations of enzyme were used, the normalization procedure would adjust for any differences in the amount of enzyme. […]. In other cases, the compound's inhibitory activity is not as strong and assay conditions were modified to increase the inhibitor concentration.
Table 4: Rates of inactivation of butyrylcholinesterase by exemplary compounds: Change in Absorbance at 412 nm/Minute. (ND=No Data)

butyrylcholinesterase [2] = target: T1, butyrylcholinesterase; test: Phosphorylation of BuChase by 14C-labeled inhibitor, autoradiography; parameters: species or system horse; conditions: 14C-labeled compound, native gel
Experimental: The cholinesterases were pre-incubated with ^14C-di-ethyl-2-chlorophenyl phosphate and then fractionated by native gel electrophoresis as described above. The proteins were fixed in the gel with 10% acetic acid/30% methanol. The fixative was removed and replaced with 100 mL of EN^3HANCE. The gel was incubated for 60 minutes at room temperature with gentle agitation and then placed in 5% PEG and incubated for 30 minutes at room temperature with gentle agitation. The gel was then dried down on a piece of 3 MM filter paper, exposed to X-ray film at −80° C. for 2 weeks, and then developed.

acetylcholinesterase = target: T2, acetylcholinesterase (Electrophorus electricus, UniProt O42275); test: Native gel electrophoresis activity stain, AcChase; format: biochemical, electric eel; conditions: pre-incubation with inhibitor
T2 construct: Acetylcholinesterase (from electric eel); purchased Sigma; host or cells: electric eel (natural source)
Experimental: (§2) Enzyme activity was also measured by native gel electrophoresis. For cholinesterase activity, proteins (10 μg of both acetylcholinesterase and butyrylcholinesterase) were fractionated on Novex precast 10% Tris glycine gels (Invitrogen). Enzyme activity was detected by first incubating the gels in a solution of 5 mM substrate then staining with a solution of copper sulfate/potassium ferricyanide.
(§3) Using native gel electrophoresis, both AcChase and BuChase activity was detected. Pre-incubation of AcChase with di-ethyl 2-chlorophenyl phosphate had no effect on AcChase activity (FIG. 1).

[3] = target: T3, butyrylcholinesterase (from horse serum) (Equus caballus, UniProt P81908); test: Rates of inactivation of butyrylcholinesterase, Ellman assay; format: biochemical; conditions: for k, rate constant of inactivation of butyrylcholinesterase ± S.E.M: 100 nM inhibitor, 25° C.; for effect on BuChase activity under standard conditions: standard conditions (100 nM inhibitor)
T3 construct: butyrylcholinesterase (from horse serum); purchased Sigma; host or cells: horse serum (natural source)
Experimental: (§4) Acetylcholinesterase (from electric eel), butyrylcholinesterase (from horse serum), DTNB, butyrylthiocholine, acetylthiocholine, and BSA were purchased from Sigma. The dialkyl 2-chlorophenyl (and 4-chlorophenyl) phosphates were solubilized in reagent grade methanol.
as §1
(§5) Butyrylcholinesterase was pre-incubated at room temperature with inhibitor in the assay cocktail minus substrate for varying periods of time at 25° C. Substrate was then added and the activity measured as described above. The relative rates of enzyme inactivation were determined by plotting enzyme activity versus time of pre-incubation with inhibitor. Results were expressed as the rate constant for the rate of enzyme inactivation. In the case of AcChase, results were expressed as the % of activity remaining relative to the enzyme incubated only with solvents.
. […] In Table 2, BuChase was incubated for increasing periods of time at 25° C. with 100 nM inhibitor then assayed for activity as described above. Rate constants were calculated from a plot of enzyme activity vs. time of inhibitor exposure. […]. Slopes were calculated by linear regression analysis.

[4] = target: T4, Acetylcholinesterase (from electric eel) (Electrophorus electricus, UniProt O42275); test: Acetylcholinesterase activity, Ellman assay after pre-incubation with inhibitor; format: biochemical; conditions: 100 μM compound, 60 minutes at 25° C.
T4 construct: Acetylcholinesterase (from electric eel); purchased Sigma; host or cells: electric eel (natural source)
Experimental: as §4, §1, §5
The first series of experiments determined the effect of the dialkyl 2-chlorophenyl (and 4-chlorophenyl) phosphates on both AcChase and BuChase. None of the compounds had any inhibitory effect on AcChase (See Table 1). In Table 1, AcChase was incubated with 100 μM of the indicated phenyl phosphate for 60 minutes at 25° C. and then assayed as described above. Results were expressed as the % activity relative to enzyme incubated with solvent ±SD (standard deviation).

butyrylcholinesterase [5] = target: T1, butyrylcholinesterase; test: Native gel electrophoresis activity stain, BuChase; format: biochemical, horse; conditions: pre-incubation with inhibitor
Experimental: as §2, §3

[6] = target: T3, butyrylcholinesterase (from horse serum); test: Rates of inactivation of butyrylcholinesterase, Ellman assay; format: biochemical; conditions: inhibitor at 10^−4M

T3 sequence (P81908 whole entry): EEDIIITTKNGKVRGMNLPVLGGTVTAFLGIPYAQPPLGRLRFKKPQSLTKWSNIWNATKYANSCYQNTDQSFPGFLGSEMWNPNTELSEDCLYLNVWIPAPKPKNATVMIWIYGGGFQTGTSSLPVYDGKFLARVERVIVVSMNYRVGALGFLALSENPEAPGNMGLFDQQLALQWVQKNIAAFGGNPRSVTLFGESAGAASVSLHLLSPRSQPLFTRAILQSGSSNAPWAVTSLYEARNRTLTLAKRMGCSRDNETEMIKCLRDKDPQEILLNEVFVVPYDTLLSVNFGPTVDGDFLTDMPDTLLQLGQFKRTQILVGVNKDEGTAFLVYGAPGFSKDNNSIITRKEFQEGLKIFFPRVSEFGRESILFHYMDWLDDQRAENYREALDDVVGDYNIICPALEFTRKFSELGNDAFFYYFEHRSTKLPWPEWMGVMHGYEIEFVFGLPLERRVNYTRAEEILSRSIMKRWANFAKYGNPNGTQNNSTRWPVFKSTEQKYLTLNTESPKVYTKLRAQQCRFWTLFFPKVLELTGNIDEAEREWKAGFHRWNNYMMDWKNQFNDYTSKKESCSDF
T1 sequence (P81908 whole entry): as above
T4 sequence (O42275 24-633): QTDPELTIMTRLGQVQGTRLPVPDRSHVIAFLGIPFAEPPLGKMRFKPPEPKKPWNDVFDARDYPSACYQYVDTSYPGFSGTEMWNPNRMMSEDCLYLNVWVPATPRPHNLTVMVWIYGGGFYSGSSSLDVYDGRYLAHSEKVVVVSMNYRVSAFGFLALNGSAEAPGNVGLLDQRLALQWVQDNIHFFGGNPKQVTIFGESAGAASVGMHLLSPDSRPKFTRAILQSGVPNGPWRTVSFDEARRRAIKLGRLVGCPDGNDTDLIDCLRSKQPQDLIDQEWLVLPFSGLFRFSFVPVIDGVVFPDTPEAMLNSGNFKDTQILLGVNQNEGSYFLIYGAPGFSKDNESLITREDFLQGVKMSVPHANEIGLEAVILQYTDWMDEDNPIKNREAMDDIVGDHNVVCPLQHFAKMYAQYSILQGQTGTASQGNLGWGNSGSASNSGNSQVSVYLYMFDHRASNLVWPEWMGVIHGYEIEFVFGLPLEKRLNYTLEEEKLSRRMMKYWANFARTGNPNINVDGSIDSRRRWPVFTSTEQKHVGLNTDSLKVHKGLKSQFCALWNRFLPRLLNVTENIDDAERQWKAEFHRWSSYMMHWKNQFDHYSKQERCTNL
T2 sequence (O42275 24-633): as above

Compound: CCCCOP(=O)(OCCCC)Oc1ccccc1Br
- Change in Absorbance at 412 nm/Minute (Normalized) (butyrylcholinesterase [1]): 1.366
- Change in Absorbance at 412 nm/Minute (Not Normalized) (butyrylcholinesterase [1]): 0.918

Compound: CCCCOP(=O)(OCCCC)Oc1cccc(Br)c1
- Change in Absorbance at 412 nm/Minute (Normalized) (butyrylcholinesterase [1]): 6.220
- Change in Absorbance at 412 nm/Minute (Not Normalized) (butyrylcholinesterase [1]): 4.18

Compound: CCCCOP(=O)(OCCCC)Oc1ccc(Br)cc1
- Change in Absorbance at 412 nm/Minute (Normalized) (butyrylcholinesterase [1]): 0.737
- Change in Absorbance at 412 nm/Minute (Not Normalized) (butyrylcholinesterase [1]): 0.495

Compound: CCCCOP(=O)(OCCCC)Oc1ccc(Cl)cc1Cl
- % inhibition of BuChase after 1 minute (butyrylcholinesterase [1]; standard conditions (10^−7M), 1 minute): 92% inhibition after 1 minute under standard conditions

Compound: CCCCOP(=O)(OCCCC)Oc1cccc(F)c1
- Change in Absorbance at 412 nm/Minute (Normalized) (butyrylcholinesterase [1]): 0.696
- Change in Absorbance at 412 nm/Minute (Not Normalized) (butyrylcholinesterase [1]): 0.468

Compound: CCCCOP(=O)(OCCCC)Oc1ccccc1F
- Change in Absorbance at 412 nm/Minute (Normalized) (butyrylcholinesterase [1]): 2.604
- Change in Absorbance at 412 nm/Minute (Not Normalized) (butyrylcholinesterase [1]): 1.75

Compound: CCCCOP(=S)(OCCCC)Oc1ccccc1Cl
- % inhibition of BuChase (butyrylcholinesterase [1]; compound at 10^−4 M): 14.6%
- inhibitory under standard conditions (butyrylcholinesterase [1]; standard conditions (10^−7M)): Not Inhibitory

Compound: CCCCOP(=O)(Oc1ccc(Cl)cc1Cl)Oc1ccc(Cl)cc1Cl
- inhibition at 100 µM (butyrylcholinesterase [1]; compound at 10^−4 M): 63.4%
- inhibitory under standard conditions (butyrylcholinesterase [1]; standard conditions (10^−7M)): Not inhibitory

Compound: O=P(Oc1ccccc1)(Oc1ccccc1)Oc1ccccc1Cl
- inhibition at 100 µM (butyrylcholinesterase [1]; compound at 10^−4 M): 29.4%
- inhibitory under standard conditions (butyrylcholinesterase [1]; standard conditions (10^−7M)): Not inhibitory

Compound: CCCCOP(=O)(OCCCC)Oc1ccccc1C
- type of inhibition (butyrylcholinesterase [1]): Reversible inhibitor: Ki = 2.1 μM

Compound: CCCCOP(=O)(OCCCC)Oc1ccc([N+](=O)[O-])cc1
- % Inhibition of BuChase, immediate (butyrylcholinesterase [1]; standard conditions (10^−7M)): 100% Inhibition (Immediate under standard conditions)

Compound: CCCCOP(=O)(OCCCC)Oc1cccc([N+](=O)[O-])c1
- % Inhibition of BuChase after 2 minutes (butyrylcholinesterase [1]; standard conditions (10^−7M), 2 minutes): 100%
- % Inhibition of BuChase, immediate (butyrylcholinesterase [1]; standard conditions (10^−7M)): 83%

Compound: CCCCCCP(=O)(OCCCC)Oc1ccccc1Cl (stereo not shown)
- Change in Absorbance at 412 nm/Minute (Normalized) (butyrylcholinesterase [1]): 14.94
- Change in Absorbance at 412 nm/Minute (Not Normalized) (butyrylcholinesterase [1]): 10.04

Compound: CCCCP(=O)(Oc1ccccc1Cl)Oc1ccccc1Cl
- Change in Absorbance at 412 nm/Minute (Normalized) (butyrylcholinesterase [1]): 0.48
- Change in Absorbance at 412 nm/Minute (Not Normalized) (butyrylcholinesterase [1]): 0.32

Compound: CCCCP(=O)(CCCC)Oc1ccccc1Cl
- Change in Absorbance at 412 nm/Minute (Normalized) (butyrylcholinesterase [1]): 1.018
- Change in Absorbance at 412 nm/Minute (Not Normalized) (butyrylcholinesterase [1]): 0.684

Compound: CCCCCCNP(=O)(OCCCC)Oc1ccccc1Cl (stereo not shown)
- Change in Absorbance at 412 nm/Minute (Normalized) (butyrylcholinesterase [1]): 1.024
- Change in Absorbance at 412 nm/Minute (Not Normalized) (butyrylcholinesterase [1]): 0.688

Compound: CCCCCCNP(=O)(Oc1ccccc1Cl)Oc1ccccc1Cl
- inhibition at 100 µM (butyrylcholinesterase [1]; compound at 10^−4 M): 73.9%
- inhibitory under standard conditions (butyrylcholinesterase [1]; standard conditions (10^−7M)): Not inhibitory

Compound: CCOP(=O)(OCC)Oc1ccccc1Cl [Di-ethyl-, 2-Chlorophenyl diethyl phosphate]
- covalent modification of BuChase (FIG. 2B) (butyrylcholinesterase [2]): covalently modified
- effect on AcChase activity, native gel (FIG. 1) (acetylcholinesterase): no effect
- k, rate constant of inactivation of butyrylcholinesterase ± S.E.M [3]: 6.64 ± 2.1 min^−1 × 10^−2
- % Activity ± SD (acetylcholinesterase activity relative to enzyme incubated with solvent) [4]: 96.77 ± 0.019%
- effect on BuChase activity, native gel (FIG. 2A) (butyrylcholinesterase [5]): nearly completely inhibited

Compound: CC(C)COP(=O)(OCC(C)C)Oc1ccccc1Cl [Di-iso-butyl-, Di-i-butyl 2-Chlorophenyl phosphate]
- k, rate constant of inactivation of butyrylcholinesterase ± S.E.M [3]: 60.83 ± 5.8 min^−1 × 10^−2
- % Activity ± SD (acetylcholinesterase activity relative to enzyme incubated with solvent) [4]: 96.18 ± 0.023%

Compound: CC(C)OP(=O)(Oc1ccccc1Cl)OC(C)C [Di-iso-propyl-, 2-Chlorophenyl di-i-propyl phosphate]
- effect on BuChase activity under standard conditions [3]: no effect
- % Activity ± SD (acetylcholinesterase activity relative to enzyme incubated with solvent) [4]: 97.82 ± 0.045%
- % Inhibition of butyrylcholinesterase [6]: 85.3% Inhibition

Compound: COP(=O)(OC)Oc1ccccc1Cl [Di-methyl-, 2-Chlorophenyl dimethyl phosphate]
- effect on BuChase activity under standard conditions [3]: no effect
- % Activity ± SD (acetylcholinesterase activity relative to enzyme incubated with solvent) [4]: 101.9 ± 0.019%
- % Inhibition of butyrylcholinesterase [6]: 48.9% Inhibition

Compound: CCCCOP(=O)(OCCCC)Oc1ccc(Cl)cc1 [Di-n-butyl-(4Cl), Di-n-butyl 4-chlorophenyl phosphate]
- k, rate constant of inactivation of butyrylcholinesterase ± S.E.M [3]: 13.01 ± 2.0 min^−1 × 10^−2
- % Activity ± SD (acetylcholinesterase activity relative to enzyme incubated with solvent) [4]: 97.61 ± 0.006%

Compound: CCCCCOP(=O)(OCCCCC)Oc1ccccc1Cl [Di-n-pentyl-, 2-Chlorophenyl di-n-pentyl phosphate]
- k, rate constant of inactivation of butyrylcholinesterase ± S.E.M [3]: 30.44 ± 3.3 min^−1 × 10^−2
- activity at 100 µM ([4]; read-out: % Activity ± SD (acetylcholinesterase activity relative to enzyme incubated with solvent)): 101.7 ± 0.03%

Compound: CCCOP(=O)(OCCC)Oc1ccccc1Cl [Di-n-propyl-, 2-Chlorophenyl di-n-propyl phosphate]
- k, rate constant of inactivation of butyrylcholinesterase ± S.E.M [3]: 20.21 ± 2.2 min^−1 × 10^−2
- % Activity ± SD (acetylcholinesterase activity relative to enzyme incubated with solvent) [4]: 97.38 ± 0.028%

Compound: CCCCOP(=O)(OCCCC)Oc1ccc(Cl)cc1 [drawing 55]
- Change in Absorbance at 412 nm/Minute (Normalized) (butyrylcholinesterase [1]): 0.338
- Change in Absorbance at 412 nm/Minute (Not Normalized) (butyrylcholinesterase [1]): 0.227
